Results: US7494780B2, “Epididymis-specific defensin for evaluating and regulating male fertility” (The Chinese University of Hong Kong, priority 2004, dated 2009)

Tested on: Bin1b
Test: In vivo antisense oligonucleotide treatment, injection into mid-caput epididymis
Parameters: species or system rat
Description: Sperm motility analysis. For the motility analysis, we used an HTM-IVOS system (version 10.8, Hamilton-Thorn Research) with the following settings: objective, ×4; minimum cell size, six pixels; minimum contrast, 65; minimum static contrast, 30; low VAP cut-off, 30.0; low VSL cut-off, 20.0; threshold straightness, 50%; static head size, 0.29-10.0; static head intensity, 0.29-1.11; magnification, 0.82. Sixty frames were acquired at a frame rate of 60 Hz. At least 200 tracks were measured for each specimen at 37° C. We recorded at least 30 points for each tract. The playback function of the system was used to check its accuracy.
Flow cytometry analysis. Rat sperm were stained with Bin1b polyclonal antibody at a final concentration of 1:200. In control samples, the antibody was replaced by preimmune serum at the same concentration. After incubation at 4° C. overnight, the sperm were washed twice with PBS containing 4 mg ml^−1 bovine serum albumin and incubated for 45 min at 22° C. with the secondary antibody, fluorescein isothiocyanate (FITC)-conjugated goat antibody against rabbit IgG (Zymed Laboratories) at a dilution of 1:50. After three washes, the sperm were analysed on a flow cytometer (Beckman Coulter). We analyzed 10,000 individual sperm per sample for FITC fluorescence emissions. A negative control of sperm stained by normal rabbit IgG was used to set the threshold for specific Bin1b staining. The percentage of sperm specifically stained for Bin1b was obtained by subtracting background fluorescence.
In vivo antisense oligonucleotide treatment. The skin covering the testis of a male Sprague-Dawley rat (aged >3 months) was cut open under anaesthesia and 30 μl of Bin1b antisense oligonucleotide (5′-[…]-3′; SEQ ID NO:3) or control sense oligonucleotide (5′-[…]-3′; SEQ ID NO:4) solution (20 μg ml^−) was injected into the proximal side of the mid-caput epididymis. The sperm were collected for assessment 48 h after injection. The use of animals in this project was authorized by the Animal Research Ethics Committee of The Chinese University of Hong Kong.

[1] = versus sense oligonucleotide control, 48 h after injection

## 5′-AGAGTAACAAAACCTTCATG-3′ (listed as DNA, chemistry not given here) [antisense Bin1b oligonucleotide]
20 μg ml^−1, versus sense control
  expression of Bin1b messenger RNA in the caput epididymis (semiquantitative RT-PCR): significantly suppressed
Versus sense control
  Bin1b binding to sperm collected in the distal caput region (flow cytometry): considerable reduction
[1]
  motility of sperm from the distal caput epididymis: reduced sperm motility
  progressive movement of sperm from the distal caput epididymis: significantly lower
Versus sense oligonucleotide control, 48 h after injection, listed as Bin1b antisense oligonucleotide
  motility of sperm from the distal caput epididymis: significantly lower
